Measurements taken from patent publication US10203334B2, “Methods and compositions related to nucleic acid binding assays” (Nubad, LLC, priority 2012, dated 2019).

How the values were obtained:
d(CCCCGGGG)2 = format: physicochemical
Text: (§1) The local electrostatic potential (Ψ) in the major groove is given by the following Equation 3. Ψ=−[R·T·ln 10/(NA·e)]ΔpKa Eq. (3) Where ΔpKa is the difference between the free Fluorescein-neomycin and the Fluorescein-neomycin in the presence of the electrostatic environment, R is the universal gas constant, T is the absolute temperature in kelvin, NA is the Avogadro constant, and e is the elementary charge. R=8.312 J mol−1K−1, T=298.2K, NA=6.023×10^23 and e=1.602×10^−19; Ψ is expressed in mV. Thus a shift of +1 in the value of the pKa implies an electrostatic potential of […]. […] Based on this Δpka of 0.86, the electrostatic potential of the microenvironment for the fluorescein moiety in the complex is determined to be −50.9 mV.
(§2) Determination of the pKa was done using chemometric analysis of the absorption profiles at various pH values of the covalently attached fluorescein moiety (Kubista, M., et al., (1993) Anal. Chem. 65, 994-998, Kubista, M., et al., (1995) Anal. Chim. Acta. 302, 121-125.2, 3). The pH dependent absorption profile of free fluorescein-neomycin was first analyzed to determine its pKa. […] The electrostatic potential (P) calculated from the shift in pKa, and the ITC derived binding constant (K). Electrostatic potential experiments performed in 100 mM NaCl, 10 mM SC, 0.5 mM EDTA at 25° C. ITC experiments performed in 50 mM KCl, 10 mM SC, 0.5 mM EDTA (pH 6.0) at 25° C. […] Fluorescein-neomycin concentration was 10 μM. Table 1 represents the pKa values determined from the inflection point of the pH dependent absorbance scans of free fluorescein-neomycin, fluorescein-neomycin with one molar equivalent d(CCCCGGGG)2 and d(GGGGCCCC)2. The electrostatic potential (Y) calculated from the shift in pKa, and the ITC derived binding constant (K).

d(GGGGCCCC)2 = format: physicochemical
Text: as §1, §2

[1] = system: E. coli ribosomal A-site (SEQ ID No. 1); assay: Quenching of F-neo by ribosomal A-site mimics, 96-well; format: binding; conditions: 0.1 μM RNA to 0.1 μM F-neo (42a); em 535 nm, ex 485 nm; ten wells averaged
Experimental: (§3) Disclosed is an HTS showing the difference in the binding affinity of fluorescene-neomycin (F-neo (42a)) to various synthetic RNA sequence 27 bases long designed to mimic the ribosomal A-site using a 96 well plate format and a fluorescent plate reader. Differences in binding are determined by the differential quenching of F-neo (42a) upon binding to the RNA.
(§4) Following the SOP's established for F-neo (42a) binding to E. coli A-site, each sequence was added at 0.1 μM RNA to 0.1 μM F-neo (42a) using 100 reads/well using a Tecan Genios Pro plate reader in a 96 well Greiner black plate. The emission was measured at wavelength 535 nm, using an excitation wavelength of 485 nm. All experiments were performed in 10 mM hepes (7.0), 50 mM NaCl, and 0.4 mM EDTA.

[2] = system: human ribosomal A-site (SEQ ID NO. 2); assay: as above; format: binding; conditions: 0.1 μM RNA to 0.1 μM F-neo (42a); em 535 nm, ex 485 nm; ten wells averaged
Experimental: as §3, §4

[3] = system: mitochondria ribosomal A-site (SEQ ID NO. 3); assay: as above; format: binding; conditions: 0.1 μM RNA to 0.1 μM F-neo (42a); em 535 nm, ex 485 nm; ten wells averaged
Experimental: as §3, §4

[4] = system: mutant mitochondria ribosomal A-site (SEQ ID NO. 4); assay: as above; format: binding; conditions: 0.1 μM RNA to 0.1 μM F-neo (42a); em 535 nm, ex 485 nm; ten wells averaged
Experimental: as §3, §4

[5] = system: 16S A-site rRNA (SEQ ID No. 1); assay: Competition dialysis; format: binding, E. coli; conditions: 100 nM ligand, 72 h dialysis, pH 7.0
Text: Disclosed is the use of fluorescent aminosugar probes such as F-neo (42a) to probe a variety of nucleic acid targets. Competition dialysis was used as a nucleic acid screening technique to illustrate the binding of F-neo (42a) to different nucleic acid structures.
Competition dialysis studies using a fluorescein-neomycin conjugate (F-neo (42a)). […] Comparative binding of F-neo (42a) to 13 different nucleic acid structures was examined which included single strand nucleic acids [poly(dT), poly(A), poly(U)], duplexes [poly(dA).poly(dT), poly(rA).poly(dT), poly(rA).poly(rU), poly(dA).poly(rU), poly(dG).poly(dC), calf thymus], triplexes [poly(dA).2poly(dT), poly(rA).2poly(rU)], i-motif (polydC) and 16S A-site rRNA (SEQ ID No. 1). The amount of F-neo (42a) bound to each nucleic acid is shown as a bar graph in FIG. 13. Because all nucleic acids are dialyzed simultaneously in the same ligand solution, the amount of bound F-neo (42a) is directly proportional to its affinity for each nucleic acid. […] 200 μL of different nucleic acids (7.5 μM per monomeric unit of each polymer) was dialyzed for 72 h with 400 mL 100 nM ligand in 6 mM Na2HPO4, 2 mM NaH2PO4, 1 mM Na2EDTA, pH 7.0 and various Na+ concentrations as indicated.
F-neo (42a) prefers to bind to 16S A-site rRNA yielding a bound ligand concentration of 85 nM in 100 mM Na^+, 50 nM in 150 mM Na^+, and 15 nM in 200 mM Na^+ is shown in FIG. 15.

[6] = electrostatic potential calculated from the shift in pKa
[7] = versus free fluorescein-neomycin

Q: What does the source list for `NCC1O[C@H](OC2C(O)C(OC3C(O)[C@H](N)CC(N)[C@H]3O[C@H]3OC(CN)[C@@H](O)C(O)C3N)O[C@@H]2CSCCNC(=O)CCSCC(=O)Nc2ccc(-c3c4ccc(=O)cc-4oc4cc(O)ccc34)c(C(=O)O)c2)C(N)C(O)[C@@H]1O` (stereo partly shown) [F-neo (42a), Neomycin-Fluorescein Conjugate]?
A: Ψ (mV) (d(CCCCGGGG)2; [6]): −15.13 mV; pKa (d(CCCCGGGG)2; one molar equivalent d(CCCCGGGG)2, 100 mM NaCl, 10 mM SC, 0.5 mM EDTA at 25° C.): 6.83; ΔpKa (d(CCCCGGGG)2; [7]): 0.26; Ψ (mV) (d(GGGGCCCC)2; [6]): −25.61 mV; pKa (d(GGGGCCCC)2; one molar equivalent d(GGGGCCCC)2, 100 mM NaCl, 10 mM SC, 0.5 mM EDTA at 25° C.): 7.01; ΔpKa (d(GGGGCCCC)2; [7]): 0.44; fluorescence of F-neo with RNA [1]: 7963 (±221); fluorescence of F-neo with RNA [2]: 9503 (±208); fluorescence of F-neo with RNA [3]: 11987 (±445); fluorescence of F-neo with RNA [4]: 8515 (±230); bound ligand concentration ([5]; 100 mM Na^+): 85 nM; bound ligand concentration ([5]; 150 mM Na^+): 50 nM; bound ligand concentration ([5]; 200 mM Na^+): 15 nM
